Source: patent US8916376B2, “Metal-binding peptides” (priority 2007, dated 2014)

What was measured:
E. coli BLR(DE3) cells [1] = test: Multi-step selection of E. coli clone library under toxic agents; apparent MIC; type: cell-based; conditions: for concentration above which no bacterial growth was observed: 24 hours selection cycle, FIG. 2
Text: The pCRRL1 library was transformed into E. coli BLR(DE3) cells, which carry a T7 RNA polymerase gene under control of IPTG-regulated lacUV5 promoter. The number of individual clones was estimated to be ˜10^5. The clone library was allowed to grow for 4 hrs in order to obtain several replicates of it, and then split into parts intended for parallel evolution experiments using different toxic agents. Expression of the randomized ORF was induced by IPTG, and the multi-step selection experiment was started by adding appropriate amounts of NiCl2, AgNO3, or K2TeO3 to the cell cultures, as shown in FIG. 2 with the selection of the E. coli clones resistant to NiCl2 (a), AgNO3 (b), and K2TeO3 (c). Large filled circles represent bacterial cultures successfully growing at indicated concentrations of each toxic agent. […] Black arrows point to the most resistant bacterial cultures, from which individual clones have been isolated for further studies of their toxicity tolerance. Grey arrow marks the culture, which was used as a non-adapted control in tests of the bacterial resistance towards nickel, silver, and tellurite. […] A concentration gradient of the toxic agents was chosen to cover a range within which an MIC was expected to be found. Thus, at every step the selective pressure was adjusted depending on the achieved level of the toxicity tolerance to keep the evolving bacterial populations under subinhibitory conditions. Substantial increase in bacterial resistance to Ni^2+, Ag^+, and TeO3^2− was observed during four, five, and seven consecutive selection cycles, respectively. After that, no further change in toxicity tolerance was detected. During the selection procedure, the apparent MIC values increased from 4 to 10 mM NiCl2, from 0.03 to 0.90 mM AgNO3, and from 0.7 to 20 μM K2TeO3. Eight clones were isolated from each of the three evolved resistant populations by plating. These were tested for the dependence of growth on mini-gene expression by measuring OD600 after 24 hrs of cultivation in the presence of corresponding toxic agent, with and without IPTG. […] All eight Ni^2+-resistant clones harbored the same plasmid (designated as pCRRL1-N94-01) with a mini-gene variant coding for the peptide […] (SEQ ID NO 1), a structural model of which is shown in FIG. 2a. In addition, a 9-bp deletion was detected in the spacer region between the ORF and the transcription terminator. However, since no important element of the mini-gene operon was located there, the deletion was unlikely to affect the peptide expression. […] All TeO3^2−-resistant clones carried a version of plasmid pCRRL1-T507-01 that has a 225-bp deletion of the whole mini-gene transcriptional unit together with adjacent downstream sequence. This deletion obviously abolishes T7 RNA polymerase activity on the plasmid, making it irresponsive to IPTG induction.

E. coli BLR(DE3) cells [2] = test: Dependence of growth under toxic agent on mini-gene expression (OD600, with and without IPTG); type: cell-based; conditions: for effect of IPTG-induced mini-gene expression on growth (OD600): resistant clones carrying the mini-gene, 24 hrs cultivation with the corresponding toxic agent, with and without IPTG
Text: The pCRRL1 library was transformed into E. coli BLR(DE3) cells, which carry a T7 RNA polymerase gene under control of IPTG-regulated lacUV5 promoter. The number of individual clones was estimated to be ˜10^5. The clone library was allowed to grow for 4 hrs in order to obtain several replicates of it, and then split into parts intended for parallel evolution experiments using different toxic agents. Expression of the randomized ORF was induced by IPTG, and the multi-step selection experiment was started by adding appropriate amounts of NiCl2, AgNO3, or K2TeO3 to the cell cultures, as shown in FIG. 2 with the selection of the E. coli clones resistant to NiCl2 (a), AgNO3 (b), and K2TeO3 (c). Large filled circles represent bacterial cultures successfully growing at indicated concentrations of each toxic agent. […] Black arrows point to the most resistant bacterial cultures, from which individual clones have been isolated for further studies of their toxicity tolerance. Grey arrow marks the culture, which was used as a non-adapted control in tests of the bacterial resistance towards nickel, silver, and tellurite. […] A concentration gradient of the toxic agents was chosen to cover a range within which an MIC was expected to be found. […] After that, no further change in toxicity tolerance was detected. […] In addition, a 9-bp deletion was detected in the spacer region between the ORF and the transcription terminator. […]
The existence of a positive correlation between the level of mini-gene expression and the extent of toxicity tolerance would strongly argue in favor of a role for the mini-gene in the mechanism of stress resistance of the evolved clones. […] Comparison of the bacterial growth parameters measured in the presence and absence of IPTG made it possible to distinguish the specific effect of mini-gene expression on culture survival and propagation from the basal resistance to the hostile environment acquired through adaptive genomic mutations. […]

[3] = E. coli BLR(DE3) pCRRL1 library, start of the selection procedure
[4] = evolved resistant population, end of the selection procedure

Compound	concentration above which no bacterial growth was observed (E. coli BLR(DE3) cells [1])	apparent MIC (E. coli BLR(DE3) cells [1]; [3]) [mM]	apparent MIC (E. coli BLR(DE3) cells [1]; [4]) [mM]	concentration at which culture was able to grow (E. coli BLR(DE3) cells [2]; non-adapted control culture, insensitive to IPTG)	effect of IPTG-induced mini-gene expression on growth (OD600) (E. coli BLR(DE3) cells [2])
O=[N+]([O-])[O-].[Ag+] [AgNO3]	above 0.9 mM	0.03	0.90	–	–
O=[Te]([O-])[O-].[K+].[K+] [K2TeO3]	above 18 mM	0.0007	0.02	–	–
[Cl][Ni][Cl] [NiCl2]	–	4	10	below 4 mM	–
MSHATATPASRRRLPLRS [SEQ ID NO 2, 18-mer peptide encoded by the mini-gene of plasmid pCRRL1-A226-01 in Ag+-resistant E. coli clones]	–	–	–	–	not affected by IPTG
MSHAYFVCNRCDSSNHSAHE [SEQ ID NO 1, 20-mer peptide encoded by the mini-gene of plasmid pCRRL1-N94-01 in Ni2+-resistant E. coli clones]	–	–	–	–	Significant IPTG-induced growth improvement
